According to ChEMBL document CHEMBL1137198, “Discovery of thiadiazoles as a novel structural class of potent and selective PDE7 inhibitors. Part 2: metabolism-directed optimization studies towards orally bioavailable derivatives” (Bioorg Med Chem Lett, 2004):
Values after ≈ are worked out from the molar mass of the structure shown.

Key:
[1] = Volume of distribution at 0.5 mg/kg i.v.; format: ADME, organism-based; set-up: dose 0.5 mg/kg, route intravenous; conditions: in vivo, iv
[2] = Clearance at 0.5 mg/kg i.v.; format: ADME, organism-based; set-up: dose 0.5 mg/kg, route intravenous; conditions: in vivo, iv
[3] = Solubility at pH 7.4; format: physicochemical; conditions: buffer
[4] = Oral bioavailability (dose 2.5 mg/kg); format: ADME, organism-based; conditions: eutheria, in vivo
[5] = Half life at 2.5 mg/kg po.; format: ADME, organism-based; set-up: dose 2.5 mg/kg; conditions: in vivo
[6] = Reduction in Clearance when compared with compound 1; format: ADME, organism-based; conditions: in vivo
[7] = Reduction in clearance when compared with compound 1; format: ADME, organism-based; conditions: in vivo
[8] = Inhibition of human Phosphodiesterase 7A1 or human phosphodiesterase 4D3 expressed in baculovirus infected Sf9 cells

| Vd ([1]; read-out: Vd) | clearance [2] | solubility ([3]; read-out: Solubility) | bioavailability [4] | half-life [5] | CL_Ratio [6] | CL_Ratio [7] | Vd [1] | Cl [2] | solubility [3] | T1/2 [5] | F [4] | IC50 [8] | Structure (SMILES) |
| --- | --- | --- | --- | --- | --- | --- | --- | --- | --- | --- | --- | --- | --- |
| 0.18 L/kg | 3.9 mL/min/kg | 145 µg/mL (≈ 399 µM) | 49.3% | 1.96 h |  |  |  |  |  |  |  |  | Cn1nc(-c2ccc(Cl)cc2)s/c1=N\c1ccc(F)c(C(=O)O)c1 |
| 0.43 L/kg | 24.9 mL/min/kg | 58 µg/mL (≈ 143 µM) | 63% | 0.46 h | 86% |  |  |  |  |  |  |  | Cn1nc(-c2ccc(C(=O)NC(C)(C)CO)cc2)s/c1=N\C1CCCC(O)C1 (centres undefined) |
| 7.65 L/kg | 179 mL/min/kg | 4 µg/mL (≈ 12.6 µM) |  |  |  |  |  |  |  |  |  |  | Cn1nc(-c2ccc(C(N)=O)cc2)s/c1=N\C1CCCCC1 |
| 0.98 L/kg | 66.9 mL/min/kg |  | 7% | 0.27 h |  | 62% |  |  |  |  |  |  | Cn1nc(-c2ccc(C(N)=O)cc2)s/c1=N\C1CCC(O)CC1 (centres undefined) |
| 2.59 L/kg | 44.8 mL/min/kg | 350 µg/mL (≈ 876 µM) | 85% | 1.37 h | 75% |  |  |  |  |  |  |  | CN1CCN(C(=O)c2ccc(-c3nn(C)/c(=N/C4CCCCC4)s3)cc2)CC1 |
| 3.3 L/kg | 74.7 mL/min/kg | 8 µg/mL (≈ 24.2 µM) | 19.6% | 0.74 h | 58% |  |  |  |  |  |  |  | CC(=O)Nc1ccc(-c2nn(C)/c(=N/C3CCCCC3)s2)cc1 |
| 0.99 L/kg | 2.65 mL/min/kg | 295 µg/mL (≈ 877 µM) | 37% | 4.75 h |  |  |  |  |  |  |  |  | Cn1nc(-c2cccc(C#N)c2)s/c1=N\c1cccc(C(=O)O)c1 |
| 7.58 L/kg | 15.8 mL/min/kg | 370 µg/mL (≈ 950 µM) | 29.3% | 2.7 h |  |  |  |  |  |  |  |  | Cn1nc(-c2ccc(S(C)(=O)=O)cc2)s/c1=N\c1cccc(C(=O)O)c1 |
| 0.92 L/kg | 12.2 mL/min/kg | 135 µg/mL (≈ 367 µM) | 100% | 2 h | 93% |  |  |  |  |  |  |  | Cn1nc(-c2ccc(S(C)(=O)=O)cc2)s/c1=N\C1CCCC(O)C1 (stereo in doubt) |
|  |  |  |  |  | 91% |  | 0.62 L/kg | 15.1 mL/min/kg | 160 µg/mL (≈ 435 µM) | 2.5 h |  |  | Cn1nc(-c2ccc(S(C)(=O)=O)cc2)s/c1=N\C1CCCC(O)C1 (stereo in doubt; 21a 9(R,R)) |
| 1.39 L/kg | 34.4 mL/min/kg |  |  | 1.42 h |  | 81% |  |  |  |  | 61.2% | 1650 nM | Cn1nc(-c2ccc(C(N)=O)cc2)s/c1=N\C1CCCC(O)C1 (stereo in doubt; cis) |
|  |  |  |  |  |  | 67% | 1.78 L/kg | 59.9 mL/min/kg |  | 1.8 h | 38.5% |  | Cn1nc(-c2ccc(C(N)=O)cc2)s/c1=N\C1CCCC(O)C1 (stereo in doubt; trans) |
| 1.47 L/kg | 38.2 mL/min/kg |  | 24.7% | 0.31 h |  | 79% |  |  |  |  |  |  | Cn1nc(-c2ccc(C(N)=O)cc2)s/c1=N\C1CCCCC1O (stereo in doubt; trans) |
| 2.02 L/kg | 13.3 mL/min/kg | 350 µg/mL (≈ 1010 µM) | 76% | 2.3 h | 92% |  |  |  |  |  |  |  | CC(=O)Nc1ccc(-c2nn(C)/c(=N/C3CCCC(O)C3)s2)cc1 (trans isomer) |
